{"source": "ChEMBL document CHEMBL1139127", "about": "“Structural modifications of (1S,3S)-3-amino-4-difluoromethylenecyclopentanecarboxylic acid, a potent irreversible inhibitor of GABA aminotransferase” (Bioorg Med Chem Lett, 2007)", "key": {"[1]": {"biological_target": "4-aminobutyrate aminotransferase, mitochondrial (Homo sapiens) (UniProt P80404)", "sequence (P80404 whole entry)": "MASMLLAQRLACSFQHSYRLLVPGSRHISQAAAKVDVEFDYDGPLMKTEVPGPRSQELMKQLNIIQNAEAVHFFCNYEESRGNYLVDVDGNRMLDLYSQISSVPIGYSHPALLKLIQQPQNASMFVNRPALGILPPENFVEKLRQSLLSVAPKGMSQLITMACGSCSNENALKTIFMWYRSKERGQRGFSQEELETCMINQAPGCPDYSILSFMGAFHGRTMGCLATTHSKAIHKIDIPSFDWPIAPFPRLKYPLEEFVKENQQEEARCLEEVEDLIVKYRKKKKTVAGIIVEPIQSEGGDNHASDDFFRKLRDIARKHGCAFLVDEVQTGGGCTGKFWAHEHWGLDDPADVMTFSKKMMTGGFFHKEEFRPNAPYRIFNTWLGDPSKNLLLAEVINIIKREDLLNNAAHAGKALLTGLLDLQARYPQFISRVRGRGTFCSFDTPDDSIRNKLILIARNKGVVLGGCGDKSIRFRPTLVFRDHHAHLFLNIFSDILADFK", "experiment": "Inhibition of GABA-AT at 10 mM assessed as residual activity"}, "[2]": {"biological_target": "4-aminobutyrate aminotransferase, mitochondrial (Homo sapiens) (UniProt P80404)", "experiment": "Inhibition of GABA-AT at 1.7 mM"}}, "note": "Calls of active or inactive are those of the source. The calls are words filed in the database; no cut-off is given here."}
{"smiles": "N[C@H]1C[C@@H](C(=O)O)CC1=C(Cl)Cl", "values": [{"measurement": "Activity", "setting": "[1]", "result": 58, "unit": "%"}, {"measurement": "Activity", "setting": "[2]", "result": "inactive"}]}
